# Assay results as given in PMC8876114, “Cytotoxicity and anti-HIV activities of extracts of the twigs of Croton dichogamus Pax” (BMC Complementary Medicine and Therapies, 2022).
# Where two headings read alike, the source gives them in different places.
# Tests used:
# [1] = system: Caco-2 human colon carcinoma cell lines; conditions: cited from earlier work
# [2] = system: HIV-1IIIB laboratory-adapted strain; experiment: Anti-HIV activity test: prevention of HIV-1 cytopathic effect in MT-4 cells (MTT); type: cell-based, Human immunodeficiency virus type 1; conditions: for IC50: Human immunodeficiency virus 1, MT4, read-out: IC50 (50% antiviral effect concentration); for EmaxAV (maximum antiviral effect %): inhibition of viral-induced cytopathic effect, HIV-1IIIB in MT-4 cells; for SI (selectivity index): ratio of CC50 to IC50, MT-4 cells
# Procedure: Human immunodeficiency virus type 1 (HIV-1) IIIB (also referred to as HTLV-IIIB) was obtained through the NIH HIV Reagent Program, Division of AIDS, NIAID, NIH: Human Immunodeficiency Virus-1 IIIB, ARP-398, contributed by Dr. Robert Gallo. The effects of the test compounds in preventing the cytopathic effect resulting from HIV-1 replication were evaluated by the MTT colorimetric assay described above.
# The laboratory-adapted strain of human immunodeficiency virus type 1 (HIV-1IIIB) obtained from the National Institutes of Health HIV Reagent Program was used in this experiment. A total of 50 µl of different concentrations ([…]) of the test compounds were seeded into 96-well flat-bottomed microtiter culture plates containing HIV-infected MT-4 cells.
# [3] = system: human T-lymphocytic MT-4 cells; type: cell-based; conditions: for CC50 (50% cytotoxic concentration): MT-4 cells, MTT, mean ± S.E.M; for MNTC (maximum nontoxic concentration): human
# Procedure: In this study, human T-lymphocytic MT-4 cells (ARP-120) were obtained through the National Institute of Health (NIH) HIV Reagent Program, Division of AIDS, National Institute of Allergy, and Infectious Diseases (NIAID), NIH: MT-4 Cells, ARP-120, contributed by Dr. Douglas Richman. The cytotoxicity test was conducted to evaluate the plant extracts' safety by measuring cell death caused by the plant extracts. The assay was conducted using the MTT colorimetric assay as described previously.
# Four solvent fractions of twigs of C. dichogamus were examined for their ability to inhibit HIV-1 replication. In addition, the in vitro toxicity of these extracts to human T-lymphocytic MT-4 cells was investigated by MTT assay. […] The average absorbance value from three replicate determinations was used to express the viability of the cells as a percentage of negative controls, and the CC50 for each plant extract was determined graphically by plotting the % growth inhibition (Emaxc) against the plant extract concentration.
# HIV [4] = system: HIV; set-up: method as in PMID 8176401; conditions: cited from earlier work
# HIV [5] = conditions: cell-based in vitro assay; literature report, no reference given; cited from earlier work
# HIV [6] = system: HIV; set-up: method as in PMID 14980692; conditions: cited from earlier work
# MCF-7 = system: MCF-7; set-up: method as in PMID 23103294; conditions: MCF-7, MTT method; read-out: IC50 (cytotoxicity); cited from earlier work
# SMMC-7721 = system: SMMC-7721; set-up: method as in PMID 23103294; conditions: SMMC-7721, MTT method; read-out: IC50 (cytotoxicity); cited from earlier work
# A-549 = system: A-549; set-up: method as in PMID 23103294; conditions: A-549, MTT method; read-out: IC50 (cytotoxicity); cited from earlier work
# SW-480 = system: SW-480; set-up: method as in PMID 23103294; conditions: SW-480, MTT method; read-out: IC50 (cytotoxicity); cited from earlier work
# HL-60 = system: HL-60; set-up: method as in PMID 23103294; conditions: HL-60, MTT method; read-out: IC50 (cytotoxicity); cited from earlier work
# [7] = HIV-1IIIB-infected MT-4 cells, MTT, mean ± S.E.M
compound,measurement,setting,value
10-epi-manninsigin D,decrease of viability,"[1]; Caco-2, at a concentration of 100 mM",43%
"Nc1nc(NC2CC2)c2ncn([C@H]3C=C[C@@H](CO)C3)c2n1 [ABC, abacavir]",IC50,[2]; [7],0.05 ± 0.031 µg/mL
same,EmaxAV (maximum antiviral effect %),[2]; mean ± S.E.M,58.67 ± 0.43%
same,SI (selectivity index),[2],5.0
same,CC50 (50% cytotoxic concentration),[3],0.26 ± 0.00 µg/mL
same,MNTC (maximum nontoxic concentration),[3],0.18 ± 0.03 µg/mL
"Cc1cn([C@H]2C[C@H](N=[N+]=[N-])[C@@H](CO)O2)c(=O)[nH]c1=O [AZT, zidovudine]",IC50,[2],0.002 µg/mL
same,EmaxAV (maximum antiviral effect %),[2]; mean ± S.E.M,83.5 ± 0.57%
same,EmaxAV (maximum antiviral effect %),"[2]; mean ± S.E.M, listed as zidovudine",83.5%
"Cc1ccnc2c1NC(=O)c1cccnc1N2C1CC1 [NVP, nevirapine]",IC50,[2]; [7],0.24 ± 0.09 µg/mL
same,EmaxAV (maximum antiviral effect %),[2]; mean ± S.E.M,72.53 ± 0.47%
same,SI (selectivity index),[2],3.5
same,CC50 (50% cytotoxic concentration),[3],0.82 ± 0.0 µg/mL
same,MNTC (maximum nontoxic concentration),[3],0.57 ± 0.0 µg/mL
"C[C@H](Cn1cnc2c(N)ncnc21)OCP(=O)(O)O [TDF, tenofovir]",IC50,[2]; [7],0.04 ± 0.01 µg/mL
same,EmaxAV (maximum antiviral effect %),[2]; mean ± S.E.M,80.55 ± 0.46%
same,CC50 (50% cytotoxic concentration),[3],6.73 ± 0.24 µg/mL
same,MNTC (maximum nontoxic concentration),[3],4.92 ± 0.71 µg/mL
C=C(C)[C@@H]1CC[C@]2(C(=O)O)CC[C@]3(C)[C@H](CC[C@@H]4[C@@]5(C)CC[C@H](O)C(C)(C)[C@@H]5CC[C@]43C)[C@@H]12 [betulinic acid],anti-HIV activity (in words),HIV [4],exhibited anti-HIV activity
CC1=CC[C@]2(C)CC(=O)[C@]3(C)C(=O)C=C(C(C)C)[C@@H]3[C@H]2CC1 [cyanthiwigin B],anti-HIV activity (in words),HIV [5],Moderate anti-HIV activity
CC1(C)CC[C@]2(C(=O)O)CC[C@]3(C)C(=CC[C@@H]4[C@@]5(C)CC[C@H](O)C(C)(C)[C@@H]5CC[C@]43C)[C@@H]2C1 [oleanolic acid],anti-HIV activity (in words),HIV [4],exhibited anti-HIV activity
CC(=O)[C@@H]1CC[C@]2(C(=O)O)CC[C@]3(C)[C@H](CC[C@@H]4[C@@]5(C)CC[C@H](O)C(C)(C)[C@@H]5CC[C@]43C)[C@@H]12 [platanic acid],anti-HIV activity (in words),HIV [4],exhibited anti-HIV activity
acetin,anti-HIV activity (in words),HIV [6],potent anti-HIV activity
furocrotinsulolide,cytotoxicity activity (in words),"[1]; Caco-2 cell line, at 30 μm",modest cytotoxicity activity
maninsigin D,IC50,MCF-7,> 40 µM
same,IC50,SMMC-7721,> 40 µM
same,IC50,A-549,> 40 µM
same,IC50,SW-480,> 40 µM
same,IC50,HL-60,> 40 µM
